According to ChEMBL document CHEMBL1122073, “Structure-activity relationships for 2-substituted imidazoles as alpha 2-adrenoceptor antagonists” (J Med Chem, 1982):
Counter-ions that a name gives are not always drawn.

Assays:
[1] = Tested for the 1-Octanol distribution coefficient determined by HPLC method (pH 7.4); assay type: physicochemical; details: 1-octanol/aqueous phase
[2] = molecular target: T1, Adrenergic receptor alpha-1 (Rattus norvegicus, UniProt P15823+P23944+P43140); experiment: Antagonistic activity against Alpha-1 adrenergic receptor in the epididymal portion of the rat vas deferens; assay type: functional, tissue-based
T1 sequence (P15823 whole entry): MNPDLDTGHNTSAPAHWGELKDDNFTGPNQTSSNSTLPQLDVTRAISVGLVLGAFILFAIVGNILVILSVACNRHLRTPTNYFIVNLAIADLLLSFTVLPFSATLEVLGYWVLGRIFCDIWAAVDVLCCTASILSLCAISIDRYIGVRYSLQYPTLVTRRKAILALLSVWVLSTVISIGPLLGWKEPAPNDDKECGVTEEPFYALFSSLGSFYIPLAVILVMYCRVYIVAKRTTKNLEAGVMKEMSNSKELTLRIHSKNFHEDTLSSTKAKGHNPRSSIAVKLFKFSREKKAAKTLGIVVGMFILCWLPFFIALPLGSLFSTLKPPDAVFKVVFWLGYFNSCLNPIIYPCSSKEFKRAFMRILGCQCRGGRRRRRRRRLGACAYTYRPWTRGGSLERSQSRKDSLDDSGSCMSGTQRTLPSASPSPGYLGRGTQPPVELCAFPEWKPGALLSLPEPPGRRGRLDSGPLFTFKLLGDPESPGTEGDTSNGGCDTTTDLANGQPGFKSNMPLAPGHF
T1 sequence (P23944 whole entry): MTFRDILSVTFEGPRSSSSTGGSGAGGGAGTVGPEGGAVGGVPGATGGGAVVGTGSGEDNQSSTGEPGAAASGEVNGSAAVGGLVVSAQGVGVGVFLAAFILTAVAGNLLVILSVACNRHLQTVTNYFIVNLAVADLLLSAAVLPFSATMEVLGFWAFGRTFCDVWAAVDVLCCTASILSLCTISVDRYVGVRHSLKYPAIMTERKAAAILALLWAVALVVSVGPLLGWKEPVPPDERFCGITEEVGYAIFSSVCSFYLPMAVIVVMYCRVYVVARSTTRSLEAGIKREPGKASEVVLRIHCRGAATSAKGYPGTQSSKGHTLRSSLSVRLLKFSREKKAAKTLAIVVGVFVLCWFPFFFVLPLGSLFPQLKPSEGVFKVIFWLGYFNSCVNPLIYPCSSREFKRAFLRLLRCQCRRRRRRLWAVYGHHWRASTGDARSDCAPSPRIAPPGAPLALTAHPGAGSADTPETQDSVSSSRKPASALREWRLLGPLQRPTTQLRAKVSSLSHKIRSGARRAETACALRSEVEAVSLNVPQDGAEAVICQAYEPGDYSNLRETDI
T1 sequence (P43140 whole entry): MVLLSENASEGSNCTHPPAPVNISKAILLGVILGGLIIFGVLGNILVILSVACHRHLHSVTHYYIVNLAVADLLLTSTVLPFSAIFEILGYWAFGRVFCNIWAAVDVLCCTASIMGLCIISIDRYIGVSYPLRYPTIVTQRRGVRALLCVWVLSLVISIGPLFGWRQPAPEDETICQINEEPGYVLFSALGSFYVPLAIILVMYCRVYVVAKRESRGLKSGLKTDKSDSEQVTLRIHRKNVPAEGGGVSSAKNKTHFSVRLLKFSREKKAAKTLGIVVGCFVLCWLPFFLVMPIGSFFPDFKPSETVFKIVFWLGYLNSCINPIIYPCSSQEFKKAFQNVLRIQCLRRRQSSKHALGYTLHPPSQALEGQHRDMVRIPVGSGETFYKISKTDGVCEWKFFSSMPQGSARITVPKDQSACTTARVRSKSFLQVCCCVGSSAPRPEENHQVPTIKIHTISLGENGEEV

[3] = molecular target: Adrenergic receptor alpha (Rattus norvegicus) (UniProt P15823+P23944+P43140+P22086+P19328+P22909); experiment: Selectivity ratio is the […] of alfa2 and alfa1 adrenoceptors; assay type: protein assay
[4] = molecular target: T2, Adrenergic receptor alpha-2 (Rattus norvegicus, UniProt P22086+P19328+P22909); experiment: Antagonistic activity against Alpha-2 adrenergic receptor in the prostatic portion of the rat vas deferens; assay type: functional, tissue-based
T2 sequence (P22086 whole entry): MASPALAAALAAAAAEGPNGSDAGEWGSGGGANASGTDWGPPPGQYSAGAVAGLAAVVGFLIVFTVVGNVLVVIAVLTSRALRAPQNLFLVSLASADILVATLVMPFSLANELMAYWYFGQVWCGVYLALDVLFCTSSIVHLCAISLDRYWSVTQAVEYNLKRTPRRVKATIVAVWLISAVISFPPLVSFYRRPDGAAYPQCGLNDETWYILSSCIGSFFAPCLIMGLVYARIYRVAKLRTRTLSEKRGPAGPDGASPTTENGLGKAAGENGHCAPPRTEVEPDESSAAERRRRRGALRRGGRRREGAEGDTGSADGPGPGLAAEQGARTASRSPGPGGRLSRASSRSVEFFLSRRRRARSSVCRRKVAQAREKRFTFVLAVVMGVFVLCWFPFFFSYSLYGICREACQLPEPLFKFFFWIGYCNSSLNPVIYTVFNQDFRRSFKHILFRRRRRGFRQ
T2 sequence (P19328 whole entry): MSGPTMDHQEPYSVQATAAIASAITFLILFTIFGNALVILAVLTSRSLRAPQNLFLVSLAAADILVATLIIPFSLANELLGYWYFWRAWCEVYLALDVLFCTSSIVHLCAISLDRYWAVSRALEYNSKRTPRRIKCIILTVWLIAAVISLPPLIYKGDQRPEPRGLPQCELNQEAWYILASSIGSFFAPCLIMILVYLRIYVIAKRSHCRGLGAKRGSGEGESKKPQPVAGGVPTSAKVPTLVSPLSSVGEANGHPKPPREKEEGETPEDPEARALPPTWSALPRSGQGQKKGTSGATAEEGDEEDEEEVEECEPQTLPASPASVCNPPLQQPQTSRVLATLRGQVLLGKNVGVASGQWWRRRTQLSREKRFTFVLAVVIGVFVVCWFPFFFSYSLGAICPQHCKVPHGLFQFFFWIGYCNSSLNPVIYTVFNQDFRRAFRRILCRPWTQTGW
T2 sequence (P22909 whole entry): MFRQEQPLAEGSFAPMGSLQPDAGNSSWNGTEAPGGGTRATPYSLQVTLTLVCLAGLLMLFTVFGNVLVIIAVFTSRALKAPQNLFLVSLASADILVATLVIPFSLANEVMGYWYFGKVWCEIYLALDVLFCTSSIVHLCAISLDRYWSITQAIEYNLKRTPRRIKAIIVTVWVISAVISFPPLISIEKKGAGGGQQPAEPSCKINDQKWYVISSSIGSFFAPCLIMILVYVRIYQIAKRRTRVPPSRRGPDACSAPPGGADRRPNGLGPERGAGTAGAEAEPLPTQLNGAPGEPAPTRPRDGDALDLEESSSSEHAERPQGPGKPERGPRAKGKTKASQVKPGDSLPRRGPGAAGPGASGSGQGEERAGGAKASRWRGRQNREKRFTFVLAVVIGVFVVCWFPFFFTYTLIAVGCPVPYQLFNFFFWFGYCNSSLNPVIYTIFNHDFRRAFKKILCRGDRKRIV

[5] = molecular target: T1, Adrenergic receptor alpha-1; experiment: […] activity against Alpha-1 adrenergic receptor in the epididymal portion of the rat vas deferens; assay type: functional, tissue-based

Structure (SMILES) | logD [1] | pA2 [2] | Selectivity ratio [3] | pA2 [4] | pA2 [5]
Cl.Cn1ccnc1CC1COc2ccccc2O1 (stereo unspecified) | 1.93 | 4.33 | 74.1 |  | 
CCn1ccnc1CC1COc2ccccc2O1.Cl (stereo unspecified) [IMILOXAN HYDROCHLORIDE] | 2.31 | < 4 |  | 6.71 | 
Cl.N=C(N)CC1COc2ccccc2O1 (stereo unspecified) |  | < 5 | > 2.5 | 5.4 | 
c1ccc2c(c1)OCC(C1=NCCN1)O2 (stereo unspecified) [IDAZOXAN HYDROCHLORIDE] | 0.33 |  |  |  | 
Clc1cccc(Cl)c1Cn1ccnc1CC1COc2ccccc2O1 (stereo unspecified) |  | < 5 | > 10 | 6 | 
Cl.c1ccc2c(c1)OCC(CCc1ncc[nH]1)O2 (stereo unspecified) | 1.99 | 4.2 | 102 |  | 
CC(C)n1ccnc1CC1COc2ccccc2O1 (stereo unspecified) |  | 4.3 | 182 | 6.56 | 
COc1cccc(Cn2ccnc2CC2COc3ccccc3O2)c1.Cl (stereo unspecified) |  |  | 38 | 6.58 | 5
Cl.c1ccc(-c2c[nH]c(CC3COc4ccccc4O3)n2)cc1 (stereo unspecified) | > 2.5 | < 5 | > 3.2 | 5.51 | 
Cl.c1ccc2c(c1)OCC(c1ncc[nH]1)O2 (stereo unspecified) | 1.76 | < 4 | > 39.8 | 5.6 | 
CCCCn1ccnc1CC1COc2ccccc2O1.Cl (stereo unspecified) |  | < 4.5 | > 219 | 6.84 | 
NCC1(c2ccccc2)OCCO1 |  | < 5 | > 3.2 | 5.5 | 
CCCn1ccnc1CC1COc2ccccc2O1 (stereo unspecified) | 2.4 |  |  |  | 
c1ccc2c(c1)OCC(Cc1ncc[nH]1)O2 (stereo unspecified) | 1.92 |  |  |  | 
c1ccc2c(c1)OCC(Cc1nc3ccccc3[nH]1)O2 (stereo unspecified) | 3.29 |  |  |  | 
Cl.c1ccc(Cn2ccnc2CC2COc3ccccc3O2)cc1 (stereo unspecified) | > 2.5 |  | 69.2 | 6.84 | 5
CCN1CCN=C1CC1COc2ccccc2O1.Cl (stereo unspecified) |  | 5 | 50.1 | 6.7 | 
Cl.c1ccc2c(c1)OCC(CC1=NCCN1)O2 (stereo unspecified) | 0.28 | 5 | 100 | 7 | 
c1ccc2c(c1)OCC(CN1CCCCC1)O2 (stereo unspecified) [PIPEROXAN] |  |  |  | 7.4 | 
